One data set deals with mThy1-hSNCA mice. The data set is described as follows: Open-field test in mThy1-hSNCA mice. The class given is in vivo, mouse. Particulars: 3 mg/kg/day s.c.; age of 8-month; n = 12-15 mice/group; vs TAT. The protocol:
C57BL/6 N-Tg (Thy1-SNCA)15Mjff/J (JAX: 017682) breeders (C57Bl/6NJ genetic background) were purchased from Jackson Laboratories. The mice were mated, bred, and genotyped in the animal facility of Case Western Reserve University. All mice were maintained at a 12-hour light/dark cycle (on 6 am, off 6 pm). All randomization and peptide treatments in mThy1-hSNCA mice were prepared by an experimenter not associated with the behavioral and neuropathology analysis. Only male mice were used in the study. mThy1-hSNCA transgenic mice and their age-matched WT littermates were implanted with a 28-day subcutaneous osmotic pump (Alzet, Cupertino CA, Model 2004) containing either TAT control peptide or CS2 peptide, which delivered the peptides at indicated rate (1 or 3 or 10 mg/kg/day). The pump was replaced once every four weeks. All mice were sacrificed at age of 10-month for neuropathology assessment.
The locomotor activity of all experimental mice was assessed in an open field chamber at 8-month-old. Briefly, the mice were placed in the center of an activity chamber (Omnitech Electronics) and allowed to explore the chamber while being tracked using an automated infrared tracking system (Vertax, Omnitech Electronics). A 24-hour locomotor activity analysis was performed. Both horizontal and vertical activity/movements were recorded.

The test system of another data set is αSyn monomer. Description: αSyn monomer ELISA, Tet-inducible αSyn SH-SY5Y cells. The class given is cell-based, human. Particulars: vs TAT. As to the method: After one day incubation with doxycycline (1µM), αSyn tet-on inducible expression SHSY5Y cells were treated with TAT or CS2 peptides at 10 µM for another two days. The level of αSyn monomer released into culture medium was measured using LEGEND MAX human αSyn ELISA kit (448607, Biolegend). The level of extracellular and intracellular αSyn oligomers was measured using human alpha synuclein oligomer ELISA kit (MBS730762, Mybioresource).
(ELISA stands for enzyme-linked immunosorbent assay.)

In data set [1] the test system is A53T-αSyn PD patient iPSC-derived DA neurons. Description: Immunofluorescence / fractionation western blot in A53T-αSyn iPSC-derived (DA) neurons. The following applies: 1 µM, five days. The class given is cell-based, human. An excerpt:
PD iPS cells lines (αSyn A53T, NN0004337, donor) and its isogenic corrected control line (NN0004344) were obtained from RUCDR Infinite Biologics. The iPS cells were differentiated into dopaminergic neuron-enriched neuronal culture with the protocol described previously. Briefly, iPS cell colonies were disassociated with accutase (Invitrogen), plated onto 6-well plates pre-coated with 2.5% Matrigel (BD Biosciences) and allowed to reach 80% confluence in mTeSR medium (Stem Cell Technology). For the first 10 days, cells were treated with SB431542 (10 µM; Tocris Bioscience) and Noggin (100 ng/ml) in Neural Media (NM) with FGF2 ([…]) and EGF ([…]). NM media contained: Neurobasal and DMEM/F12 (1:1), B-27 Supplement Minus Vitamin A (50×, Invitrogen), N2 Supplement (100X, Invitrogen), GlutaMAX (Invitrogen, 100×), 100 units/ml penicillin and 100 µg/ml streptomycin (Fisher); for the next 4 days, cells were treated with human recombinant Sonic hedgehog (SHH, 200 ng/ml) in neuronal differentiation medium. Neuronal differentiation medium contained Neurobasal and DMEM/F12 (1:3), B27, N2, GlutaMax and PS. In the following 3 days, cells were switched to BDNF (20 ng/ml), ascorbic acid (200 µM, Sigma-Alderich), SHH (200 ng/ml), and FGF8b (100 ng/ml) in neuronal differentiation medium. Thereafter, cells were treated with BDNF, ascorbic acid, GDNF (10 ng/ml), TGF-b (1 ng/ml), and cAMP ([…], Sigma-Aldrich). All growth factors were purchased from Pepro Tech (Rocky Hill, NJ, USA). After 20 days of induction, neurons were treated daily with TAT or CS2 peptides at 1µM and were fixed for immunostaining at 26 days of induction. The imaging was observed by confocal microscope (Fluoview FV3000, Olympus).
Cells were grown on coverslips, fixed with 4% paraformaldehyde for 20 min at room temperature, permeabilized with 0.1% Triton X-100 in PBS, and blocked with 2% normal goat serum. The cells were incubated with the indicated primary antibodies overnight at 4℃. After washing with PBS, the cells were incubated with Alexa Fluor 488/568 or 405/568 secondary antibody (1:500; Thermo Fisher Scientific) for 2 h at room temperature. The nuclei were counterstained with DAPI (1:10000; Sigma-Aldrich). Images of the staining were acquired using a Fluoview FV3000 confocal microscope (Olympus).
Fig. 6 CS2 treatment is protective in DA neurons derived from PD patient iPSCs. (A) Representative images of MitoTracker staining and ClpP-αSyn PLA in A53T αSyn or isogenic control (ISO) iPSCs-derived neurons (scale bar = 30 μm). (B) Representative images of ClpP-αSyn PLA in A53T αSyn or ISO iPSCs-derived neurons, which were treated with TAT or CS2 peptide (scale bar = 30 μm). […] (C) Representative blots of co-immunoprecipitation assay assessing ClpP-αSyn in A53T αSyn or ISO iPSCs-derived neurons, which were treated with TAT or CS2 peptide. […] (D) Representative images of ClpP staining in […] positive (TH^+) iPSCs-derived DA neurons treated with TAT or CS2 peptide (scale bar = 30 μm). […] (E) Representative images of pS129-αSyn (pS129) staining in TH^+ iPSCs-derived DA neurons treated with TAT or CS2 peptide (scale bar = 30 μm). […] (F) Representative images of PSD95, Synapsin1 (SYN1) and MAP2 staining in iPSCs-derived neurons treated with TAT or CS2 peptide (scale bar = 30 μm).
(C) Detergent soluble and insoluble fractions were extracted from iPSC-derived neurons and subjected for western blot analyses. Shown are the representative blots of 3 independent experiments.
A general note: In western blotting, separated proteins are transferred to a membrane and probed.

The next data set has as its system SH-SY5Y cells. Description: Cellular ATP in SH-SY5Y cells. The class given is cell-based. As to the method:
Cells were seeded in 24-well plates, followed by the indicated treatment. The ATP level in each well was determined using the ATP assay kit according to the manufacturer’s procedures (Cayman Chemical, 700410).

Where [2] appears, read: A53T-αSyn iPSC neurons, n = 6–7.

Structures are written as SMILES.

The record followed here is paper PMC12751141, “Disrupting α-Synuclein–ClpP interaction restores mitochondrial function and attenuates neuropathology in Parkinson’s disease models” (Molecular Neurodegeneration, 2025).

Turning to `CC(C)[C@H](NC(=O)CNC(=O)CNC(=O)CCCCCNC(=O)[C@H](CCCNC(=N)N)NC(=O)[C@H](CCCNC(=N)N)NC(=O)[C@H](CCCNC(=N)N)NC(=O)[C@H](CCC(N)=O)NC(=O)[C@H](CCCNC(=N)N)NC(=O)[C@H](CCCNC(=N)N)NC(=O)[C@H](CCCCN)NC(=O)[C@H](CCCCN)NC(=O)[C@H](CCCNC(=N)N)NC(=O)CNC(=O)[C@@H](N)Cc1ccc(O)cc1)C(=O)N[C@H](C(=O)N[C@H](C(=O)N[C@@H](C)C(=O)O)[C@@H](C)O)C(C)C` [CS2, TAT-C6-GGVVTA], the “locomotor activity, open field” value with mThy1-hSNCA mice was “ameliorated locomotor activity”. Further, in the data set on αSyn monomer (10 µM, two days, ELISA, n = 4), the “extracellular αSyn monomer” value is on record as “decreased levels”. The “intracellular αSyn monomer” value with αSyn monomer is listed as “decreased levels”. For the same compound, the “insoluble αSyn accumulation, iPSC neurons” value in data set [1] (3 independent experiments) was “reduced the expression of pS129-αSyn and the accumulation of insoluble αSyn”. Besides, the “pS129-αSyn expression, iPSC DA neurons” value in data set [1] (n = 5–7) is recorded as “reduced the expression of pS129-αSyn”. For the same compound, in data set [1] (n = 6), the “ClpP protein level in TH+ DA neurons” value is on record as “significantly restored ClpP protein levels”. Moreover, in data set [1] (setting [2]), the PSD95 density entry is “restored the density of both PSD95 and Synapsin1”; the Synapsin1 density result is “restored the density of both PSD95 and Synapsin1”. Further, the “ATP content, αSyn-expressing cells” value with SH-SY5Y cells (SH-SY5Y expressing WT- or A53T-αSyn, n = 6) is “rescued upon CS2 treatment”. Moreover, in the data set with SH-SY5Y cells (healthy SH-SY5Y, n = 4), the “ATP production, healthy cells” value is “did not affect cell viability nor ATP production”.
